According to patent US20250170101A1, “MONOACYLGLYCEROL LIPASE INHIBITORS AND USE THEREOF FOR THE TREATMENT AND MANAGEMENT OF PAIN AND RELATED CONDITIONS” (Psy Therapeutics, Inc., priority 2021, published 2025):

What was measured:
[1] = Pharmacokinetic study of compounds in mice, Example 25; format: in vivo, male C57BL/6 mice; conditions: Brain, Oral, 5 mg/kg
Description: Healthy male C57BL/6 mice (8-12 weeks old) weighing between 17 to 35 g were procured from Global, India. Temperature and humidity were maintained at 22±3° C. and 30-70%, respectively and illumination was controlled to give a sequence of 12 hr light and 12 hr dark cycle. Temperature and humidity were recorded by auto-controlled data logger system. All the animals were provided laboratory rodent diet. Reverse osmosis water treated with ultraviolet light was provided ad libitum.
Protocol A: Twenty-four male mice were divided into two groups as; Group 1: 30 mg/kg/IP; Plasma and brain; Number of animals=12; Animal #1-12. Group 2: 30 mg/kg/PO; Plasma and brain; Number of animals=12; Animal #13-24. […] All samples were processed for analysis by protein precipitation using acetonitrile and analyzed with fit-for-purpose LC/MS/MS method (LLOQ—2.02 ng/mL for plasma and 6.06 ng/g for brain). Pharmacokinetic parameters were calculated using the non-compartmental analysis tool of Phoenix WinNonlin®.
Protocol B: Thirty six mice were included into the study and divided in to three groups as Group 1 (n=12), Group 2 (n=12) and Group 3 (n=12) with n=2 mice per time-point design. […] Plasma and brain samples were quantified by fit-for-purpose LC-MS/MS method (LLOQ: 1.01 ng/mL for plasma and 2.02 ng/mL for brain). […]

[2] = target: T1, MAGL enzyme (Homo sapiens, UniProt Q99685); assay: MAGL reversible inhibition assay (washout), Example 22; format: biochemical; design: % MAGL activity returning after washout: concentration or dose not given beside the values
T1 sequence (Q99685 1-303): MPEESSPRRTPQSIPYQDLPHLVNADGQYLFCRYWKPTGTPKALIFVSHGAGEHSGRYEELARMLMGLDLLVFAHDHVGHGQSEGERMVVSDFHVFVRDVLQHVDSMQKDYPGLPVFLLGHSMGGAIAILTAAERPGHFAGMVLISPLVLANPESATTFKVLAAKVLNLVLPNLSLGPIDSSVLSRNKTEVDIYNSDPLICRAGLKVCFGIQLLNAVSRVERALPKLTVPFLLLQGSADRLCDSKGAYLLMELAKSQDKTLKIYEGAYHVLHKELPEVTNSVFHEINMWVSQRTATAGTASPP
Description: The reversible mechanism of MAGL inhibition of a test compound of Formula (I) can be determined. Flag-tagged MAGL enzyme will be immobilized on anti-Flag beads. Immobilized enzyme will be incubated+/−inhibitor at a dose that produces complete inhibition. Colorimetric substrate (4-NPA) will be added and the reaction monitored on a plate reader for 30 minutes to verify complete inhibition. Immobilized enzyme will then be washed thoroughly to remove the inhibitor, and fresh substrate will be added. The reaction will be monitored for an additional 30 minutes; returning enzymatic activity will indicate reversibility of inhibition. […]
For some test compounds, % activity returning after washout may be less than 100%/if complete compound unbinding takes longer than 30 minutes.

[3] = Plasma and brain concentrations after single intraperitoneal administration, Examples 23 and 24; format: in vivo, male C57BL/6 mice; conditions: 0.5 h
Description: (§1) This experiment was performed to determine plasma pharmacokinetics and estimate 2-AG levels in male C57BL/6 mice brain following a single intraperitoneal administration of Compound-74 (Dose: 5, 15, 50 and 150 mg/kg). The experiment was repeated at 150 mg/kg on 3 separate test dates to obtain the data shown in FIG. 1A (plasma and brain concentration of Compound 74 30 minutes after IP injection), and on the first and third test dates to obtain the data shown in FIG. 1B (brain concentration of 2-AG30 minutes after IP injection of Compound 74). • Compound 74, Molecular Wt.: 405.46 (Freebase), % Purity: Considered 100%. • Formulation: DMSO • Dose: 5, 15, 50 and 150 mg/kg • Dose volume: 2 mL/kg • Feeding regimen: freely fed • Groups:
Study Design: A total of thirty male mice were used into the study and divided in to five groups with six mice in each group (n=6 mice/group/treatment design). Animals in Group 1 to Group 4 were administered intraperitoneally with Compound 74 solution formulation at 5, 15, 50 and 150 mg/kg dose, respectively. Animals in Group 5 were administered intraperitoneally with vehicle at 2 mL/kg dose. Blood and brain samples were collected at 0.5 h post dose. Mice were euthanized by cervical dislocation and brain samples were dissected rapidly and snap frozen in liquid nitrogen, weighed and homogenized in 2 mL of acetonitrile containing 2-AGd5. Blood samples were centrifuged at 4000 rpm for 10 minutes at 4° C. Plasma was harvested and separated in pre-labeled tubes. All samples were stored below −70° C. until bioanalysis.
Analysis: Brain samples were processed for 2-AG estimation. 2-AG levels were the detected values. Plasma concentrations were determined by fit for purpose LC-MS/MS method. LLOQ: 5.09 ng/mL (Plasma and brain)
This experiment was performed to determine plasma pharmacokinetics and estimate 2-AG levels in male C57BL/6 mice brain following a single intraperitoneal administration of Compound-473 (Dose: 20 mg/kg). • Compound 473, Molecular Wt.: 463.41 (Freebase), % Purity: >98%. • Formulation: DMSO • Dose: 20 mg/kg • Dose volume: 10 mL/kg • Feeding regimen: Food and water ad libitum • Groups:
Study Design: A total of twelve C57BL/6 male mice were used in this study. Six animals were administered intraperitoneally with solution formulation of PSY-05-00473-002 at 20 mg/kg dose. Six animals were administered vehicle (5% NMP, 5% Solutol HS15 and 90% Normal saline) intraperitoneally at 10 mL/kg dose volume. Blood samples (approximately 60 μL) were collected under light isoflurane anesthesia from a set of six mice at 0.5 h. Plasma was harvested by centrifugation of blood and stored at −70±10° C. until analysis. After blood collection, mice were euthanized by cervical dislocation and brain samples were dissected rapidly and snapped frozen in liquid nitrogen and stored at −80. To homogenize, removed brain samples from the freezer, were divided into two equal hemispheres and weighed while still in frozen condition, and begun homogenization/extraction procedure without allowing the brain samples to thaw. One part is used for PK estimation and the other part is used for 2-AG estimation.
Analysis: For PK estimation, brain samples were homogenized in 2 volumes of PBS of brain weight. Total homogenate volume was three times of the brain weight. For 2-AG estimation, the frozen brain samples were homogenized in 2 mL acetonitrile containing 2-AGd5 (8.88 nmoles) will be incubated overnight at −20° C. to precipitate proteins. Blood samples were centrifuged at 10000 rpm for 10 minutes at 4° C. All samples were stored below −70° C. until bioanalysis. Plasma and brain homogenate samples were quantified by fit-for-purpose LC-MS/MS method (LLOQ: 1.02 ng/mL for plasma and 2.03 ng/mL for brain).

[4] = tested on: 2-AG levels in brain; assay: Estimation of 2-AG in mouse brain after single intraperitoneal administration, Examples 23 and 24; format: in vivo, male C57BL/6 mice; conditions: single IP
Description: as §1
Study Design: A total of thirty male mice were used into the study and divided in to five groups with six mice in each group (n=6 mice/group/treatment design). Animals in Group 1 to Group 4 were administered intraperitoneally with Compound 74 solution formulation at 5, 15, 50 and 150 mg/kg dose, respectively. Animals in Group 5 were administered intraperitoneally with vehicle at 2 mL/kg dose. Blood and brain samples were collected at 0.5 h post dose. […]
Analysis: Brain samples were processed for 2-AG estimation. 2-AG levels were the detected values. Plasma concentrations were determined by fit for purpose LC-MS/MS method. […]

[5] = tested on: Post-Operative Pain (Brennan) mouse model; assay: Chronic treatment in Post-Operative Pain (Brennan) mouse model, Example 27; format: in vivo, Mus Musculus C57BL/6; conditions: IP
Excerpt: The aim of this experiment was to evaluate effect of the test compounds Compound 74 and JZL-184 in after Chronic treatment in a Post-Operative Pain (Brennan) mouse model. • Mouse model: Mus Musculus & C57BL/6, male, 6-8 weeks • End points: mechanical allodynia and body weight
(§2) • Animals was anaesthetized under Isoflorane anesthesia. • Using aseptic conditions, prepared the plantar aspect of left hind paw with a 10% povidone-iodine solution and place the paw through a hole in a sterile cloth drape. Made a 0.5-cm longitudinal incision through skin and fascia of the paw with a no. 11 scalpel blade, beginning 0.2 cm from the proximal edge of the heel and extending toward the digits. • Elevated the underlying muscle with small curved forceps and incised longitudinally with the scalpel blade, keeping the muscle origin and insertion intact. • After homeostasis with gentle pressure, apposed the skin with 5-0 slik sutures. Cover the wound site.

[6] = tested on: Acute Post-Operative Pain (Brennan) mice model; assay: Acute Post-Operative Pain (Brennan) mice model, Example 26; format: in vivo, Mus Musculus C57BL/6; conditions: 50 & 150 mg/kg, IP; at 30, 60 & 90 min
Excerpt: The aim of this experiment was to evaluate effect of the test compounds Compound 74 and JZL-184 in Acute Post-Operative Pain (Brennan) mice model. • Mouse model: Mus Musculus & C57BL/6, male, 6-8 weeks • End points: mechanical allodynia and brain 2-AG (optional)
as §2

| Structure (SMILES) | AUClast [1] [ng·h/mL] | degree to which MAGL enzymatic activity returned following washout of test compounds ([2]; pre-washout compound concentration 1 μM) | % MAGL activity returning after washout ([2]; relative to control (no inhibitor before washout), immediately following 30 minute washout) [%] | Brain Plama Ratio (Kp) range ([3]; IP 5 mg/kg) | Plasma concentration range ([3]; IP 5 mg/kg) [ng/mL] | Brain Plama Ratio (Kp) range ([3]; IP 15 mg/kg) | Brain concentration range ([3]; IP 15 mg/kg) [ng/g] | Plasma concentration range ([3]; IP 15 mg/kg) [ng/mL] | Brain Plama Ratio (Kp) range ([3]; IP 50 mg/kg) | Plasma concentration range ([3]; IP 50 mg/kg) [ng/mL] | Brain Plama Ratio (Kp) range ([3]; IP 150 mg/kg) | Brain concentration range ([3]; IP 150 mg/kg) [ng/g] | Plasma concentration range ([3]; IP 150 mg/kg) [ng/mL] | levels of 2-AG compared to baseline (vehicle treatment) ([4]; 5 and 15 mg/kg dose) | levels of 2-AG compared to baseline (vehicle treatment) ([4]; 50 and 150 mg/kg dose groups) | mechanical allodynia (Threshold, g) vs Vehicle control ([5]; 50 mg/kg, QD×8 days) | mechanical allodynia (Threshold, g) vs Vehicle control ([5]; 50 & 150 mg/kg, single dose) | mechanical allodynia (Threshold, g) vs Vehicle control [6] |
| --- | --- | --- | --- | --- | --- | --- | --- | --- | --- | --- | --- | --- | --- | --- | --- | --- | --- | --- |
| Cc1cnn(C2CC3(C2)CN(C(=O)c2cc(O)ccc2F)C3)c1-c1cc(F)ccc1F (single isomer, unassigned) [Compound 476, {6-[5-(2,5-difluorophenyl)-4-methyl-1-pyrazolyl]-2-aza-2-spiro[3.3]heptyl}(2-fluoro-5-hydroxyphenyl)methanone] | 223.64 | – | – | – | – | – | – | – | – | – | – | – | – | – | – | – | – | – |
| Cc1cc(C2CC3(C2)CN(C(=O)c2cc(O)ccc2F)C3)n(-c2ccccc2C)n1 [Compound 74, (2-fluoro-5-hydroxyphenyl)(6-(3-methyl-1-(o-tolyl)-1H-pyrazol-5-yl)-2-azaspiro[3.3]heptan-2-yl)methanone] | – | 162 | >50 | 0.51-0.68 | 12 to 186 | 0.16-0.44 | 25 to 67 | 70 to 414 | 0.06-0.08 | 447 to 14914 | 0.07-0.20 | 2412 to 12111 | 34920 to 70256 | elevated slightly | significant increase | significant decrease in mechanical allodynia | significant decrease in mechanical allodynia | significant decrease in mechanical allodynia |
